Source: US20150126464A1, “THERAPEUTIC DRUG AND THERAPEUTIC METHOD FOR NEUROLOGICAL DISEASES INCLUDING ALZHEIMER'S DISEASE ASSOCIATED WITH 1,25D3-MARRS” (priority 2013, published 2015)

How the values were obtained:
[1] = system: rat cortical neurons (SD E18); assay: Measurement of axon density in cortical neurons with or without 1,25D3-MARRS knockdown; conditions: 1 μM, 4 days, vs vehicle
Text: siRNAs were transfected into rat cortical neurons (SD E18) according to the manufacturer's protocol for nucleofection (Lonza, Bazel, Switzerland). […] Two days after the transfection, the cells were fixed and double-immunostained with a monoclonal antibody against a neuron marker MAP2a/2b (1:500, NeoMarker, Fremont, Calif., USA) and Ab099 clone, a specific antibody for 1,25D3-MARRS (1:500, provided by Dr. Nemere).
Twelve to fourteen images were captured. The lengths of the pNF-H-positive axons were measured using an image analyzer Neurocyte (Kurabo), which automatically traces and measures neurite length without measuring the cell bodies. The sum of the axon lengths was divided by the number of MAP2-positive neurons.
1,25D3-MARRS was knocked down using siRNA transfection. […] Two days after the siRNA transfection, denosomin (1 μM) or a vehicle solution was applied to the cells. Further, after 4-day incubation, the cells were double-immunostained for pNF-H and MAP2 to measure the axonal length per neuron.

5XFAD mice [2] = assay: Immunohistochemistry of brain slices of 5XFAD mice (amyloid plaques, PHF-tau, abnormal axons, presynapses); assay type: in vivo, mouse; conditions: vs vehicle-treated 5XFAD
Procedure: One day after the novel object recognition test, the mice were anesthetized and transcardially perfused with cold physiological saline. The brains were carefully removed from the skull, immediately immersed in 10 to 30% sucrose-PBS and stored at -80° C. The brains were cut in 20-μm successive coronal slices every 100 μm in the parietal area (bregma 1.4-2 mm) sections using a cryostat (C[…], Leica, Heidelberg, Germany). The slices were fixed with 4% paraformaldehyde and stained with a polyclonal antibody against Aβ (1-40/42) (1:300) (Chemicon, Temecula, Calif., USA), a monoclonal antibody against pNF-H (1:500) (Covance, Emeryville, Calif., USA), a monoclonal antibody against synaptophysin (1:500) (Sigma-Aldrich), and a monoclonal antibody against PHF-tau (Thermo Scientific, Rockford, Ill., USA) at 4° C. for 20 hours. […] Three successive brain slices of the frontal cortex and five successive slices of the hippocampus were captured from a mouse for quantification. Extracellular amyloid plaques were determined by the size (greater than 50 μm in width), and the area of amyloid plaques was measured using the image analyzing software ImageJ. The area of the pNF-H-positive abnormal bulb-like axons was measured using ImageJ for every amyloid plaque in the fluorescent images (324 μm×430 μm). The areas of the synaptophysin-positive presynaptic boutons in every amyloid plaque were measured in fluorescent images (324 μm×430 μm) using Image J. The areas of PHF-tau in every amyloid plaque and outer amyloid plaques were measured in fluorescent images (324 μm×430 μm) using ImageJ.

1,25D3-MARRS = biological target: T1, 1,25D3-MARRS (Mus musculus, UniProt P27773); assay: Identification of the target protein for diosgenin (thermolysin proteolysis of lysate, LC/MS/MS); assay type: binding; conditions: mouse cortical neuron lysate, band thicker than in vehicle-treated lysate
T1 construct: endogenous in cells; host or cells: mouse cortical neuron primary culture (ddY, E14), cell lysate
T1 sequence (P27773 25-505): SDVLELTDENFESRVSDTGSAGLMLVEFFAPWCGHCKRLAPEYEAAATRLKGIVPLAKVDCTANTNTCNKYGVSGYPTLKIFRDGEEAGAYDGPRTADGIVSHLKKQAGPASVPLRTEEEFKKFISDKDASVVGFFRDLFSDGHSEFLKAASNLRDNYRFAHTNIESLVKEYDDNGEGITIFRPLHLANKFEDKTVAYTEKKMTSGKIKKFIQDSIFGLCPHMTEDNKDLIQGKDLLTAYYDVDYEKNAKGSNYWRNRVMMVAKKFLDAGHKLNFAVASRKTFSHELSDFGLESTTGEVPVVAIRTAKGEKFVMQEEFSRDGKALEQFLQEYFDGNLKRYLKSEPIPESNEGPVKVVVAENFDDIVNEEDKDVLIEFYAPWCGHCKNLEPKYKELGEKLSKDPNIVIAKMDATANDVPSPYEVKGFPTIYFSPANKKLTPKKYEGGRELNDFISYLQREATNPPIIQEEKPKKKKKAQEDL
Procedure: A mouse cortical neuron primary culture (ddY, E14) was maintained for 24 hours without any drug treatment. The cells were lysed with M-PER (Thermo Scientific) supplemented with protease and phosphatase inhibitors. After centrifugation (20,000×g) for 15 minutes, the protein concentration of the lysates was determined using Quick Start (Bio-Rad Laboratories, Hercules, Calif., USA). The cell lysate (5.6 μg each) was added to 2 μL of a vehicle solution of 10 mM diosgenin and incubated at 4° C. for 30 minutes. The mixture was proteolyzed using 7.5 μg of thermolysin in a reaction buffer [50 mM Tris-HCl (pH 8.0), 50 mM NaCl, and 10 mM CaCl2] at room temperature for 10 minutes. To stop the proteolysis, 0.5 M EDTA (pH 8.0) was added to each sample at a ratio of 1:10. The samples were then mixed well and placed on ice. The reaction samples were electrophoresed using a 5 to 20% real gel plate (Bio Craft, Tokyo, Japan). The separated proteins were stained using a negative gel stain MS kit (Wako). The bands in the diosgenin-treated lysate that were thicker than those in the vehicle-treated lysate were cut out and prepared for mass spectrometry analysis. After alkylation using iodoacetamide and in-gel digestion by trypsin, the supernatants were analyzed by nano-LC/MS/MS using LTQ Orbitrap XL (ThermoFisher). […]

5XFAD mice [3] = assay: Open field locomotion test in 5XFAD mice; assay type: in vivo, mouse; conditions: i.p. 20 days, diosgenin 10 μmol/kg, memantine hydrochloride 200 μmol/kg/day, among the four groups
Procedure: Diosgenin was dissolved in dimethyl sulfoxide (DMSO) at 10 times the final concentration to give a stock solution. The stock solution was diluted in physiological saline to the final concentration immediately before treatment. The diosgenin solution was intraperitoneally administered to 5XFAD mice once a day (10 μmol/kg=4.14 mg/kg) for 20 days. On the last day of administration (Day 20), each mouse was housed in a separate open-field box made of polyvinyl chloride (33 cm×[…]; height: 26.5 cm) and habituated to the environment for 10 min.
For each mouse of Example 1, Comparative Examples 1 and 2, and Reference Example 1, the path during the 10-minute habituation was tracked using a digital camera system. The distance each mouse traveled during the 10 minutes was analyzed as locomotion activity with EthoVision 3.0 (Noldus, Wageningen, The Netherlands). The next day, a novel object recognition test was performed as described in Joyashiki, E. et al., Int J Neurosci, 121, 181-190, 2011 and Tohda, C. et al., Int J Neurosci, 121, 641-648, 2011, written by the inventors and others. Testing was carried out in a dimly illuminated room. […] In the present invention, the ratio (%) of the exploration time for the novel object to the total exploration time was calculated as an exploration preferential index. […]

[4] = diosgenin 10 μmol/kg, memantine hydrochloride 200 μmol/kg/day i.p. 20 days

traveling speed and distance in open field locomotion test (5XFAD mice [3]): no significant differences
SMILES: C[C@@H]1CC[C@@]2(OC1)O[C@H]1C[C@H]3[C@@H]4CC=C5C[C@@H](O)CC[C@]5(C)[C@H]4CC[C@]3(C)[C@H]1[C@@H]2C [diosgenin]
density of pNF-H-positive axons per MAP2-positive neuron, control groups ([1]; control (no 1,25D3-MARRS knockdown) cortical neurons): significantly increased
density of pNF-H-positive axons per MAP2-positive neuron, 1,25D3-MARRS knockdown groups ([1]; neurons transfected with siRNA for 1,25D3-MARRS (400 nM)): did not show any difference
area of abnormal presynapses (swollen presynapse area) per amyloid plaque in the cerebral cortex (5XFAD mice [2]; diosgenin 10 μmol/kg i.p. 20 days): significantly reduced
area of abnormal axons (swollen axon area) per amyloid plaque in the cerebral cortex (5XFAD mice [2]; [4]): significantly reduced
area of abnormal axons (swollen axon area) per amyloid plaque in the hippocampus (5XFAD mice [2]; [4]): significantly reduced
total area of PHF-tau in the cerebral cortex (5XFAD mice [2]; [4]): significantly reduced
total area of PHF-tau in the hippocampus (5XFAD mice [2]; [4]): significantly reduced
total area of amyloid plaques in the cerebral cortex (5XFAD mice [2]; [4]): significantly reduced
total area of amyloid plaques in the hippocampus (5XFAD mice [2]; [4]): significantly reduced
direct target protein identified (1,25D3-MARRS): direct target protein of diosgenin was 1,25D3-MARRS
